# Experimental data as given in US9695155B2, “Herbicidal substituted pyrimidinyloxy benzene compounds” (E. I. DU PONT DE NEMOURS AND COMPANY, priority 2013, dated 2017).
# Columns and labels:
# giant foxtail = assay: Test A postemergence; assay type: in vivo, Setaria faberii
# Method in brief: (§1)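 Greenhouse pot test, loam/sand soil. Formulation: non-phytotoxic solvent mix plus surfactant. Pre: directed spray onto soil after sowing. Post: plants at 1–2 leaf, 2–10 cm. Rated visually vs untreated controls at ~10 d, 0 (no effect) to 100 (complete control).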
# oilseed rape = assay: Test C preemergence; assay type: in vivo, Brassica napus; settings: for Oilseed Rape plant response rating: preemergence; for Plant response rating, Oilseed Rape: Preemergence, scale 0 to 100, 0 no effect, 100 complete control
# Description: Seeds of plant species selected from blackgrass (Alopecurus myosuroides), Italian ryegrass (Lolium multiflorum), wheat, winter (winter wheat, Triticum aestivum), galium (catchweed bedstraw, Galium aparine), corn (Zea mays), large (Lg) crabgrass (Digitaria sanguinalis), giant foxtail (Setaria faberii), johnsongrass (Sorghum halepense), lambsquarters (Chenopodium album), morningglory (Ipomoea coccinea), yellow nutsedge (Cyperus esculentus), pigweed (Amaranthus retroflexus), ragweed (common ragweed, Ambrosia elatior), soybean (Glycine max), barnyardgrass (Echinochloa crus-galli), oilseed rape (Brassica napus), waterhemp (common waterhemp, Amaranthus rudis), kochia (Kochia scoparia), wild oat (Avena fatua), surinam grass (Brachiaria decumbens), foxtail, green (green foxtail, Setaria viridis), goosegrass (Eleusine indica), bromegrass, downy (downy bromegrass, Bromus tectorum), nightshade (eastern black nightshade, Solanum ptycanthum), cocklebur (common cocklebur, Xanthium strumarium), cupgrass, woolly (woolly cupgrass, Eriochloa villosa), bermudagrass (Cynodon dactylon), sunflower, (common oilseed sunflower, Helianthus annuus), Russian thistle (Salsola kali), and velvetleaf (Abutilon theophrasti) were planted into a blend of loam soil and sand and treated preemergence with test chemicals formulated in a non-phytotoxic solvent mixture which included a surfactant.
# At the same time, plants selected from these crop and weed species and also barley, winter (winter barley, Hordeum vulgare), windgrass (Apera spica-venti), chickweed (common chickweed, Stellaria media), deadnettle (henbit deadnettle, Lamium amplexicaule), and canarygrass (littleseed canarygrass, Phalaris minor) were planted in pots containing Redi-Earth® planting medium (Scotts Company, 14111 Scottslawn Road, Marysville, Ohio 43041) comprising spaghnum peat moss, vermiculite, wetting agent and starter nutrients and treated with postemergence applications of test chemicals formulated in the same manner. Plants ranged in height from 2 to 18 cm (1- to 4-leaf stage) for postemergence treatments. Treated plants and controls were maintained in a greenhouse for 13 to 15 days, after which time all species were compared to controls and visually evaluated. Plant response ratings, summarized in Table C, are based on a scale of 0 to 100 where 0 is no effect and 100 is complete control. A dash (-) response means no test result.
# Heteranthera limosa = assay: Test B flooded paddy test; assay type: in vivo; settings: Flood, 250 g ai/ha; 0 to 100 scale where 0 is no effect and 100 is complete control
# Method in brief: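 Greenhouse flooded-pot test: compounds dosed into 3 cm standing water over 2-leaf plants, flood held constant. Rated visually after 13–15 days on 0–100 (complete control = 100); a dash marks no test result.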
# corn [1] = assay: Test A postemergence; assay type: in vivo, Zea mays
# Method in brief: as §1
# Italian ryegrass = assay: Test C preemergence; assay type: in vivo, Lolium multiflorum; settings: for Ryegrass, Italian plant response rating: preemergence; for Plant response rating, Ryegrass, Italian: Preemergence, scale 0 to 100, 0 no effect, 100 complete control
# Method in brief: (§2)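 Sown in loam/sand → sprayed pre-emergence; or grown to 1–4 leaves in peat mix → sprayed post-emergence. Same solvent/surfactant formulation both ways. Greenhouse 13–15 d. Score 0–100 visual.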
# barnyardgrass = assay: Test A preemergence; assay type: in vivo, Echinochloa crus-galli
# Method in brief: as §1
# ragweed = assay: Test C preemergence; assay type: in vivo, Ambrosia elatior; settings: for Ragweed plant response rating: preemergence; for Plant response rating, Ragweed: Preemergence, scale 0 to 100, 0 no effect, 100 complete control
# Method in brief: as §2
# wild oat = assay: Test C postemergence; assay type: in vivo, Avena fatua; settings: for Plant response rating (0 to 100), Oat, Wild: postemergence; for Plant response rating, Oat, Wild: Postemergence, scale 0 to 100 (0 no effect, 100 complete control)
# Method in brief: as §2
# kochia = assay: Test C postemergence; assay type: in vivo, Kochia scoparia; settings: for Plant response rating (0 to 100), Kochia: postemergence; for Plant response rating, Kochia: Postemergence, scale 0 to 100 (0 no effect, 100 complete control)
# Method in brief: as §2
# pigweed = assay: Test C postemergence; assay type: in vivo, Amaranthus retroflexus; settings: for Plant response rating (0 to 100), Pigweed: postemergence; for Plant response rating, Pigweed: Postemergence, scale 0 to 100 (0 no effect, 100 complete control)
# Method in brief: as §2
# morningglory [2] = assay: Test A postemergence; assay type: in vivo, Ipomoea spp.
# Method in brief: as §1
# corn [3] = assay: Test C postemergence; assay type: in vivo, Zea mays; settings: for Plant response rating (0 to 100), Corn: postemergence; for Plant response rating, Corn: Postemergence, scale 0 to 100 (0 no effect, 100 complete control)
# Method in brief: as §2
# morningglory [4] = assay: Test C postemergence; assay type: in vivo, Ipomoea coccinea; settings: for Plant response rating (0 to 100), Morningglory: postemergence; for Plant response rating, Morningglory: Postemergence, scale 0 to 100 (0 no effect, 100 complete control)
# Method in brief: as §2
# wheat = assay: Test A preemergence; assay type: in vivo, Triticum aestivum
# Method in brief: as §1
# large (Lg) crabgrass = assay: Test A preemergence; assay type: in vivo, Digitaria sanguinalis
# Method in brief: as §1
# [5] = 31 g ai/ha, 0 to 100 scale, 0 no effect, 100 complete control
# [6] = 125 g ai/ha, 0 to 100 scale, 0 no effect, 100 complete control
# [7] = 16 g ai/ha, scale 0 to 100 (0 no effect, 100 complete control)
# [8] = 125 g ai/ha, scale 0 (no effect) to 100 (complete control)
# [9] = 31 g ai/ha, 0 to 100 scale where 0 is no effect and 100 is complete control, visual, approximately 10 days
# [10] = 125 g ai/ha, 0 to 100 scale where 0 is no effect and 100 is complete control
# [11] = 500 g ai/ha, 0 to 100 scale, 0 no effect, 100 complete control
# [12] = 500 g ai/ha, 0 to 100 scale, 0 no effect, 100 complete control, approx. 10 days
# [13] = 62 g ai/ha, scale 0 (no effect) to 100 (complete control)
# [14] = 250 g ai/ha, scale 0 (no effect) to 100 (complete control)
# [15] = 500 g ai/ha, 0 to 100 scale where 0 is no effect and 100 is complete control
smiles,measurement,setting,value
FCc1cccc(Oc2ncc(Cl)cn2)c1-n1cc(Cl)cn1 [Compound 250],"Plant response rating, Foxtail, Giant",giant foxtail; [5],10
same,"Plant response rating, Foxtail, Giant",giant foxtail; [6],80
same,Oilseed Rape plant response rating,oilseed rape; [7],100
same,Oilseed Rape plant response rating,oilseed rape; [8],100
same,"Plant response rating, Oilseed Rape",oilseed rape; 62 g ai/ha,100
same,"Plant response rating, Ducksalad",Heteranthera limosa,70
same,"Plant response rating, Corn",corn [1]; [5],10
same,"Plant response rating, Corn",corn [1]; [6],30
same,"Ryegrass, Italian plant response rating",Italian ryegrass; [7],0
same,"Ryegrass, Italian plant response rating",Italian ryegrass; [8],15
same,"Plant response rating, Ryegrass, Italian",Italian ryegrass; 62 g ai/ha,5
same,"Plant response rating, Barnyardgrass",barnyardgrass; [9],10
same,"Barnyardgrass plant response rating (0 to 100 scale, 0 is no effect, 100 is complete control)",barnyardgrass; 125 g ai/ha,90
same,Ragweed plant response rating,ragweed; [7],15
same,Ragweed plant response rating,ragweed; [8],75
same,"Plant response rating, Ragweed",ragweed; 62 g ai/ha,40
Fc1cccc(Oc2ncc(Cl)cn2)c1-n1cc(OCC(F)(F)F)cn1 [Compound 270],"Plant response rating, Foxtail, Giant",giant foxtail; [5],10
same,"Plant response rating, Foxtail, Giant",giant foxtail; [6],90
same,Oilseed Rape plant response rating,oilseed rape; [7],95
same,Oilseed Rape plant response rating,oilseed rape; [8],100
same,"Plant response rating, Oilseed Rape",oilseed rape; 62 g ai/ha,100
same,"Plant response rating, Ducksalad",Heteranthera limosa,100
same,"Plant response rating, Corn",corn [1]; [5],20
same,"Plant response rating, Corn",corn [1]; [6],50
same,"Ryegrass, Italian plant response rating",Italian ryegrass; [7],0
same,"Ryegrass, Italian plant response rating",Italian ryegrass; [8],50
same,"Plant response rating, Ryegrass, Italian",Italian ryegrass; 62 g ai/ha,10
same,"Plant response rating, Barnyardgrass",barnyardgrass; [9],20
same,"Barnyardgrass plant response rating (0 to 100 scale, 0 is no effect, 100 is complete control)",barnyardgrass; 125 g ai/ha,100
same,Ragweed plant response rating,ragweed; [7],0
same,Ragweed plant response rating,ragweed; [8],70
same,"Plant response rating, Ragweed",ragweed; 62 g ai/ha,45
FC(F)(F)c1cnn(-c2ccccc2Oc2ncc(Cl)cn2)c1 [Compound 16],"Plant response rating (0 to 100), Oat, Wild",wild oat; 125 g ai/ha,35
same,"Plant response rating (0 to 100), Oat, Wild",wild oat; 250 g ai/ha,45
same,"Plant response rating, Oat, Wild","wild oat; 31 g ai/ha, 13 to 15 days",25
same,"Plant response rating, Oat, Wild",wild oat; 62 g ai/ha,35
same,"Plant response rating, Foxtail, Giant",giant foxtail; [10],100
same,"Plant response rating, Foxtail, Giant",giant foxtail; [11],100
same,"Plant response rating (0 to 100), Kochia",kochia; 125 g ai/ha,98
same,"Plant response rating (0 to 100), Kochia",kochia; 250 g ai/ha,100
same,"Plant response rating, Kochia","kochia; 31 g ai/ha, 13 to 15 days",35
same,"Plant response rating, Kochia",kochia; 62 g ai/ha,80
same,"Plant response rating (0 to 100), Pigweed",pigweed; 125 g ai/ha,100
same,"Plant response rating (0 to 100), Pigweed",pigweed; 250 g ai/ha,100
same,"Plant response rating, Pigweed","pigweed; 31 g ai/ha, 13 to 15 days",80
same,"Plant response rating, Pigweed",pigweed; 62 g ai/ha,98
same,"Plant response rating, Morningglory",morningglory [2]; [10],90
same,"Plant response rating, Morningglory",morningglory [2]; [11],100
same,"Plant response rating (0 to 100), Corn",corn [3]; 125 g ai/ha,10
same,"Plant response rating (0 to 100), Corn",corn [3]; 250 g ai/ha,20
same,"Plant response rating, Corn","corn [3]; 31 g ai/ha, 13 to 15 days",5
same,"Plant response rating, Corn",corn [3]; 62 g ai/ha,5
same,"Plant response rating, Ducksalad",Heteranthera limosa,90
same,"Plant response rating, Corn",corn [1]; [10],70
same,"Plant response rating, Corn",corn [1]; [11],80
same,"Plant response rating (0 to 100), Morningglory",morningglory [4]; 125 g ai/ha,80
same,"Plant response rating (0 to 100), Morningglory",morningglory [4]; 250 g ai/ha,85
same,"Plant response rating, Morningglory","morningglory [4]; 31 g ai/ha, 13 to 15 days",65
same,"Plant response rating, Morningglory",morningglory [4]; 62 g ai/ha,80
same,Wheat plant response rating,wheat; [10],20
same,Wheat plant response rating,wheat; [12],60
same,"Crabgrass, Large plant response rating",large (Lg) crabgrass; [10],100
same,"Crabgrass, Large plant response rating",large (Lg) crabgrass; [12],100
same,"Ryegrass, Italian plant response rating",Italian ryegrass; [13],30
same,"Ryegrass, Italian plant response rating",Italian ryegrass; [8],80
same,"Ryegrass, Italian plant response rating",Italian ryegrass; [14],90
same,"Plant response rating, Ryegrass, Italian",Italian ryegrass; 31 g ai/ha,0
same,Barnyardgrass plant response rating,barnyardgrass; [10],100
same,Barnyardgrass plant response rating,barnyardgrass; [12],100
same,Ragweed plant response rating,ragweed; [13],25
same,Ragweed plant response rating,ragweed; [8],55
same,Ragweed plant response rating,ragweed; [14],60
same,"Plant response rating, Ragweed",ragweed; 31 g ai/ha,0
COc1cnn(-c2c(C#N)cccc2Oc2ncc(Cl)cn2)c1 [Compound 137],"Foxtail, Giant plant response rating",giant foxtail; [10],70
same,"Plant response rating, Foxtail, Giant",giant foxtail; [15],100
same,Oilseed Rape plant response rating,oilseed rape; [7],50
same,Oilseed Rape plant response rating,oilseed rape; [13],85
same,Oilseed Rape plant response rating,oilseed rape; [8],95
same,"Plant response rating, Ducksalad",Heteranthera limosa,30
same,Corn plant response rating,corn [1]; [10],30
same,"Plant response rating, Corn",corn [1]; [15],80
same,"Ryegrass, Italian plant response rating",Italian ryegrass; [7],0
same,"Ryegrass, Italian plant response rating",Italian ryegrass; [13],0
same,"Ryegrass, Italian plant response rating",Italian ryegrass; [8],0
same,"Plant response rating, Barnyardgrass",barnyardgrass; [10],20
same,Barnyardgrass plant response rating,barnyardgrass; [15],100
same,Ragweed plant response rating,ragweed; [7],45
same,Ragweed plant response rating,ragweed; [13],80
same,Ragweed plant response rating,ragweed; [8],95
